US20240279283A1, “CYCLIC PEPTIDE ANTIBIOTICS” (priority 2021, published 2024)
Bridge positions count the residues as written; N and C are the ends. Square brackets hold non-standard residues; d marks the D form. Peptide text beside a SMILES is read from it. Bip = N[C@@H](Cc1ccc(-c2ccccc2)cc1)C(=O)O; Phe(4-Cl) = N[C@@H](Cc1ccc(Cl)cc1)C(=O)O; 1Nal = N[C@@H](Cc1cccc2ccccc12)C(=O)O; 2Nal = N[C@@H](Cc1ccc2ccccc2c1)C(=O)O; His(π-Me) = Cn1cncc1C[C@H](N)C(=O)O; NMeY = CN[C@@H](Cc1ccc(O)cc1)C(=O)O; NMeF = CN[C@@H](Cc1ccccc1)C(=O)O; Abu = CC[C@H](N)C(=O)O

How the values were obtained:
Assay type in all cases: cell-based
Details in all cases: LB broth, 5×10^5 CFU/ml, 37° C., 18 hours, scored by eye
[1] = test system: E. coli 25922; experiment: Minimum Inhibitory Concentration (MIC) determination, E. coli 25922; set-up: unit not given here
Method: (§1) MICs were determined by performing two-fold serial dilutions of peptides in LB broth to a final volume of 0.1 ml in round-bottom 96-well assay plates (Corning Life Sciences No 3788). Peptides were initially resuspended in 100% DMSO to 10 mM and subsequently diluted in LB medium to the appropriate concentration. Each well was inoculated with 5×10^5 CFU/ml of the screening stain and incubated at 37° C. without agitation for 18 hours. Plates were scored by eye, and the lowest compound concentration preventing visible growth was determined to be the MIC.

[2] = test system: K. pneumoniae ATCC43816; experiment: Minimum Inhibitory Concentration (MIC) determination, K. pneumoniae ATCC43816; set-up: unit not given here
Method: as §1

[3] = test system: E. cloacae ATCC222; experiment: Minimum Inhibitory Concentration (MIC) determination, E. cloacae ATCC222; set-up: unit not given here
Method: as §1

[4] = test system: E. coli 25922 IMP; experiment: Minimum Inhibitory Concentration (MIC) determination, E. coli 25922 IMP
Method: as §1

[5] = test system: E. coli BW25113; experiment: Minimum Inhibitory Concentration (MIC) determination, E. coli BW25113; set-up: unit not given here
Method: as §1

| Structure (SMILES) | MIC E. coli 25922 WUXI::MIC [1] | MIC K. pneumoniae ATCC43816 Wuxi::MIC [2] | MIC E. cloacae ATCC222 WUXI::MIC [3] | MIC E. coli 25922 IMP WUXI::MIC [4] | MIC E. coli BW25113 WUXI::MIC [5] |
| --- | --- | --- | --- | --- | --- |
| CC[C@@H]1NC(=O)[C@H](Cc2ccc(Cl)cc2)NC(=O)CSC[C@@H](C(=O)NCC(N)=O)NC(=O)[C@H](Cc2cncn2C)NC(=O)[C@H](CCCNC(=N)N)NC(=O)[C@H](Cc2c[nH]cn2)NC(=O)[C@H](Cc2ccc(O)cc2)N(C)C(=O)[C@H](CCCNC(=N)N)NC(=O)[C@H](CO)NC(=O)CNC(=O)[C@H](Cc2c[nH]cn2)NC(=O)[C@H](Cc2cccc3ccccc23)NC1=O [Compound 22] ({CH2CO}-[Phe(4-Cl)][Abu][1Nal]HGSR[NMeY]HR[His(π-Me)]CG-NH2; thioether N-12) | 6.3 | 13 | 0.39 | 0.002 | 25 |
| CC[C@@H]1NC(=O)[C@H](Cc2ccccc2)NC(=O)CSC[C@@H](C(=O)NCC(N)=O)NC(=O)[C@H](Cc2cncn2C)NC(=O)[C@H](C)NC(=O)[C@H](Cc2c[nH]cn2)NC(=O)[C@H](Cc2ccc(O)cc2)N(C)C(=O)[C@H](CCCNC(=N)N)NC(=O)[C@H](CO)NC(=O)CNC(=O)[C@H](Cc2c[nH]cn2)NC(=O)[C@H](Cc2cccc3ccccc23)NC1=O (stereo in doubt) [Compound 38] | 100 | 100 | 13 | 0.063 | 100 |
| CC(C)[C@@H]1NC(=O)[C@H](Cc2ccccc2)NC(=O)CSC[C@@H](C(=O)NCC(N)=O)NC(=O)[C@H](Cc2cncn2C)NC(=O)[C@H](CCCNC(=N)N)NC(=O)[C@H](Cc2cnc[nH]2)NC(=O)[C@H](Cc2ccc(O)cc2)N(C)C(=O)[C@H](CCCNC(=N)N)NC(=O)[C@H](CO)NC(=O)CNC(=O)[C@H](Cc2cnc[nH]2)NC(=O)[C@H](Cc2c[nH]c3ccccc23)NC1=O (racemic) [Compound 14] | 25 | 25 | 1.19 | 0.0119 | 37.5 |
| CC[C@@H]1NC(=O)[C@H](Cc2ccc(O)cc2)NC(=O)CSC[C@@H](C(=O)NCC(N)=O)NC(=O)[C@H](Cc2cncn2C)NC(=O)[C@H](CCCNC(=N)N)NC(=O)[C@H](Cc2c[nH]cn2)NC(=O)[C@H](Cc2ccc(O)cc2)N(C)C(=O)[C@H](CCCNC(=N)N)NC(=O)[C@H](CO)NC(=O)CNC(=O)[C@H](Cc2c[nH]cn2)NC(=O)[C@H](Cc2cccc3ccccc23)NC1=O [Compound 19, (3R,6S,9S,12S,15S,18S,21S,27S,30S, 33S,36S)-N-(2-amino-2-oxo-ethyl)-33-ethyl-9,18-bis(3-guanidinopropyl)-21-(hydroxymethyl)-15,36-bis[(4-hydroxyphenyl)methyl]-12,27-bis(1H-imidazol-4-ylmethyl)-16-methyl-6-[(3-methylimidazol-4-yl)methyl]-30-(1-naphthylmethyl)-5,8,11,14,17,20,23,26,29,32,35,38-dodecaoxo-1-thia-4,7,10,13,16,19,22,25,28,31,34,37-dodecazacyclononatriacontane-3-carboxamide] ({CH2CO}-Y[Abu][1Nal]HGSR[NMeY]HR[His(π-Me)]CG-NH2; thioether N-12) | 3.1 | 6.3 | 0.39 | 0.0039 | 6.3 |
| CC[C@@H]1NC(=O)[C@H](Cc2ccccc2)NC(=O)CSC[C@@H](C(=O)NCC(N)=O)NC(=O)[C@H](Cc2cncn2C)NC(=O)[C@H](CCCNC(=N)N)NC(=O)[C@H](Cc2c[nH]cn2)NC(=O)[C@H](Cc2ccc(O)cc2)N(C)C(=O)[C@H](C)NC(=O)[C@H](CO)NC(=O)CNC(=O)[C@H](Cc2c[nH]cn2)NC(=O)[C@H](Cc2cccc3ccccc23)NC1=O [Compound 36] ({CH2CO}-F[Abu][1Nal]HGSA[NMeY]HR[His(π-Me)]CG-NH2; thioether N-12) | 100 |  |  | 100 |  |
| CC[C@@H]1NC(=O)[C@H](Cc2ccccc2)N(C)C(=O)CSC[C@@H](C(=O)NCC(N)=O)NC(=O)[C@H](Cc2cncn2C)NC(=O)[C@H](CCCNC(=N)N)NC(=O)[C@H](Cc2c[nH]cn2)NC(=O)[C@H](Cc2ccc(O)cc2)N(C)C(=O)[C@H](CCCNC(=N)N)NC(=O)[C@H](CO)NC(=O)CNC(=O)[C@H](Cc2c[nH]cn2)NC(=O)[C@H](Cc2cccc3ccccc23)NC1=O [Compound 23] ({CH2CO}-[NMeF][Abu][1Nal]HGSR[NMeY]HR[His(π-Me)]CG-NH2; thioether N-12) | 25 |  |  | 0.016 |  |
| CC[C@@H]1NC(=O)[C@H](Cc2ccccc2)NC(=O)CSC[C@@H](C(=O)NCC(N)=O)NC(=O)[C@H](Cc2cncn2C)NC(=O)[C@H](CCCNC(=N)N)NC(=O)[C@H](Cc2c[nH]cn2)NC(=O)[C@H](Cc2ccc(O)cc2)NC(=O)[C@H](CCCNC(=N)N)NC(=O)[C@H](CO)NC(=O)CNC(=O)[C@H](Cc2c[nH]cn2)NC(=O)[C@H](Cc2cccc3ccccc23)NC1=O [Compound 32, (3R,6S,9S,12S,15S,18S,21S,27S,30S, 33S,36S)-N-(2-amino-2-oxo-ethyl)-36-benzyl-33-ethyl-9,18-bis(3-guanidinopropyl)-21-(hydroxymethyl)-15-[(4-hydroxyphenyl)methyl]-12,27-bis(1H-imidazol-4-ylmethyl)-6-[(3-methylimidazol-4-yl)methyl]-30-(1-naphthylmethyl)-5,8,11,14,17,20,23,26,29,32,35,38-dodecaoxo-1-thia-4,7,10,13,16,19,22,25,28,31,34,37-dodecazacyclononatriacontane-3-carboxamide] ({CH2CO}-F[Abu][1Nal]HGSRYHR[His(π-Me)]CG-NH2; thioether N-12) | 25 |  |  | 0.031 |  |
| CC[C@@H]1NC(=O)[C@H](Cc2ccccc2)NC(=O)CSC[C@@H](C(=O)NCC(N)=O)NC(=O)[C@H](Cc2cncn2C)NC(=O)[C@H](CCCNC(=N)N)NC(=O)[C@H](Cc2c[nH]cn2)NC(=O)[C@H](Cc2ccc(O)cc2)N(C)C(=O)[C@H](CCCNC(=N)N)NC(=O)[C@H](CO)NC(=O)CNC(=O)[C@H](Cc2c[nH]cn2)NC(=O)[C@H](Cc2ccc(-c3ccccc3)cc2)NC1=O [Compound 24] ({CH2CO}-F[Abu][Bip]HGSR[NMeY]HR[His(π-Me)]CG-NH2; thioether N-12) | 13 |  |  | 0.016 |  |
| CC[C@H](C)[C@@H]1NC(=O)[C@H]([C@@H](C)O)NC(=O)[C@H](Cc2cncn2C)NC(=O)[C@H](Cc2ccccc2)NC(=O)CSC[C@@H](C(=O)NCC(N)=O)NC(=O)[C@H](Cc2ccc(O)cc2)NC(=O)[C@H](Cc2ccc(Cl)cc2)NC(=O)[C@H](Cc2ccc(O)cc2)NC(=O)[C@H](CCCNC(=N)N)NC(=O)[C@H](Cc2ccccc2)NC(=O)C(C)(C)NC(=O)[C@H](CO)NC(=O)[C@H](CCCCN)NC(=O)[C@H](CCCNC(=N)N)NC1=O (mixture of isomers) [Compound 60] | 16 |  |  | 1 | 16 |
| CC[C@H](C)[C@@H]1NC(=O)[C@H]([C@@H](C)O)NC(=O)[C@H](Cc2cncn2C)NC(=O)[C@H](Cc2ccccc2)NC(=O)CSC[C@@H](C(=O)NCC(N)=O)NC(=O)[C@H](Cc2ccc(O)cc2)NC(=O)[C@H](Cc2c[nH]c3ccccc23)NC(=O)[C@H](Cc2ccc(O)cc2)NC(=O)[C@H](CCCCN)NC(=O)[C@H](Cc2ccccc2)NC(=O)C(C)(C)NC(=O)[C@H](CO)NC(=O)[C@H](CCCCN)NC(=O)[C@H](CCCNC(=N)N)NC1=O (racemic) [Compound 61] | 16 |  |  | 1 | 16 |
| CC[C@@H]1NC(=O)[C@H](Cc2ccccc2)NC(=O)CSC[C@@H](C(=O)NCC(N)=O)NC(=O)[C@H](Cc2cncn2C)NC(=O)[C@H](CCCNC(=N)N)NC(=O)[C@H](Cc2c[nH]cn2)NC(=O)[C@H](Cc2ccc(O)cc2)N(C)C(=O)[C@H](CCCNC(=N)N)NC(=O)[C@H](CO)NC(=O)CNC(=O)[C@H](Cc2c[nH]cn2)NC(=O)[C@H](Cc2ccc3ccccc3c2)NC1=O [Compound 25] ({CH2CO}-F[Abu][2Nal]HGSR[NMeY]HR[His(π-Me)]CG-NH2; thioether N-12) | 25 |  |  | 0.031 |  |
| CC[C@H](C)[C@@H]1NC(=O)[C@H]([C@@H](C)O)NC(=O)[C@H](Cc2cncn2C)NC(=O)[C@H](Cc2ccccc2)NC(=O)CSC[C@@H](C(=O)NCC(N)=O)NC(=O)[C@H](Cc2ccc(O)cc2)NC(=O)[C@H](Cc2c[nH]c3ccccc23)NC(=O)[C@H](Cc2ccc(O)cc2)NC(=O)[C@H](CCCNC(=N)N)NC(=O)[C@H](Cc2ccccc2)NC(=O)C(C)(C)NC(=O)[C@H](CO)NC(=O)[C@H](CCCCN)NC(=O)[C@H](CCCNC(=N)N)NC1=O (racemic) [Compound 59] | 8 |  |  | 1 | 16 |
| CC[C@@H]1NC(=O)[C@H](Cc2ccccc2)N(C)C(=O)CSC[C@@H](C(=O)NCC(N)=O)NC(=O)[C@H](Cc2cncn2C)NC(=O)[C@H](CCN)NC(=O)[C@H](Cc2c[nH]cn2)NC(=O)[C@H](Cc2ccc(O)cc2)N(C)C(=O)[C@H](CCCNC(=N)N)NC(=O)[C@H](CO)NC(=O)CNC(=O)[C@H](Cc2c[nH]cn2)NC(=O)[C@H](Cc2cccc3ccccc23)NC1=O (racemic) [Compound 49] | 50 |  |  |  |  |
